Data on one compound can be found in patent US20090298897A1, “Treatment of Inflammatory Disorders With Triazole Compounds” (priority 2006, published 2009).

One data set concerns IL-12p40. Briefly: IL-12 secretion by activated monocytes (IL-12p40 ELISA). Format: cell-based, human. Conditions: monocytes activated with Zymosan or 19 kDa lipoprotein for 18 h. Here is the method:
Peripheral blood mononuclear cells (PBMC) were isolated from healthy donors by density gradient centrifugation on Ficoll-Hypaque Plus and monocytes were selected by adherence. After overnight culture in RPMI 1640 supplemented with […] FBS, monocytes were activated with Zymosan or 19 kDa lipoprotein for 18 h, and IL-12p40 was measured in the supernatant by ELISA.
On the technique in general: ELISA stands for enzyme-linked immunosorbent assay.

The test system of another data set is IL-1α. Briefly: Expression of IL-1α, rambazole compared to retinoic acid (FIG. 2). Format: in vivo, human. The source says: Also unexpectedly, rambazole-treated lesions (such as, for example, psoriatic lesions) continue to improve and show reduced inflammatory patterns for at least 3 months after discontinuation of treatment. Further, in contrast with retinoids such as isotretinoin, rambazole-treated inflammatory lesions responded rapidly within the first 4 weeks of treatment. This finding supports an antiinflammatory action for rambazole in addition to the typical effects on proliferation and differentiation.

Data set [1] has as its system mild to moderate acne vulgaris. The experiment in a line: Treatment of acne vulgaris with topical rambazole. Conditions: after 12 weeks; daily topical 0.35% rambazole. Format: in vivo, human.
The subject of another data set is skin of volunteers, UVB. Briefly: Effects of topical 0.35% rambazole on UVB-induced inflammation (chromametry). Format: in vivo, human. To be noted: topical 0.35% for 9 days, then 5 days UVB. The source says: In an investigator-blinded, placebo-controlled study, topical 0.35% rambazole was applied to the skin of volunteers for 9 days, followed by 5 days of induction of inflammation with UVB. Adapalene was used in the study as a standard anti-inflammatory agent.

For another data set, the system named is Interleukin-1 (IL-1). Briefly: Expression of IL-1 in the skin of healthy volunteers (real-time PCR). Format: in vivo, human. The protocol:
In this randomized, double-blind, left-right, placebo-controlled trial, the expression of Interleukin-1 (IL-1) in the skin of 15 healthy subjects was evaluated after a once daily application of rambazole gel at two different concentrations (0.35% or 0.07%) on intact skin for 9 days. The IL-1 biomarker was analyzed with real-time PCR.
For orientation: In qPCR the cycle at which signal appears reflects the starting amount.

Data set [2] deals with moderate to severe plaque type psoriasis. Briefly: Treatment of psoriasis with oral rambazole (PASI score). To be noted: for % PASI Score from Baseline: individual subjects. Format: in vivo, human. Here is the method:
Seventeen patients with a Psoriasis Area and Severity Index (PASI) score of at least 5 (moderate to severe plaque type psoriasis) received a daily oral dose of 1 mg of rambazole. The evolution of the PASI score was monitored after 1, 2, 4 and 8 weeks of treatment and at the end of a 2-week follow-up period. […] Biopsies from lesions were taken and surface markers were analyzed.

A further data set deals with IP-10. Briefly: IP-10 expression and secretion in IFNγ-activated normal human epidermal keratinocytes (ELISA). It counts as cell-based. Conditions: 50 U/mL IFNγ; rambazole 10^-5 M to 3×10^-8 M for 18 hours. Here is the method: Fourth passage normal human epidermal keratinocytes were plated at 2,000 cells/well in low Ca^2+ KSFM. After 3 days incubation to 60% confluence, the medium was removed and cells were stimulated with 50 U/mL IFNγ and incubated with rambazole ranging from 10^-5 M to 3×10^-8 M for 18 hours. Interferon-inducible protein (IP-10) expression in the culture medium was determined using the IP-10 sandwich-type ELISA and all data were corrected for cell count. Values are represented as mean percentages±SD (n=4) versus drug solvent control.

Several values for one entry are separate records, joined by “and”; a condition that tells them apart may be missing. Equal values may be shown once. Entries after “also recorded” stand apart in the source; their conditions may differ.

Take `CCC(CC)C(c1ccc(Nc2nc3ccccc3s2)cc1)n1cncn1` (stereo not shown) [rambazole]: the “IL-12 secretion (IL-12p40 in supernatant)” value in the data set on IL-12p40 is given as “dose-dependently suppressed; also recorded: suppression of IL-12”. Also, the “expression of IL-1” value with IL-1α is on record as “decrease the expression of IL-1”. The “reduction in global assessment score” value in data set [1] is listed as “approximately 40%”. Besides, in the data set on skin of volunteers, UVB, the “phototoxicity (chromametry)” value is reported as “no indication of phototoxicity”. Further, in the data set on Interleukin-1 (IL-1) (0.35% rambazole, during one day after 8 days of treatment), the “skin reaction reported by one subject” value is reported as “mild itching”. Besides, the “local skin reactions during 9 days of treatment” value in the data set on Interleukin-1 (IL-1) (gel 0.35% or 0.07% once daily) is “no itching, irritating, stinging, burning or vesiculation occurred”. The “IL-1 expression in skin” value in the data set on Interleukin-1 (IL-1) (gel 0.35% or 0.07% once daily on intact skin for 9 days, healthy subjects) is reported as “dose-dependently decrease”. The “side effects / tolerability” value in data set [2] (daily oral dose 1 mg, psoriasis patients) is reported as “mild to moderate; also recorded: well tolerated”. In addition, the “time lesions continue to improve and show reduced inflammatory patterns after discontinuation of treatment” value in data set [2] (rambazole-treated lesions such as psoriatic lesions) is given as “at least 3 months”. In addition, in data set [2] (subjects that completed 8 weeks of treatment, daily oral dose 1 mg), the “mean reduction in PASI score” value is recorded as 51.4%. Besides, the “% PASI Score from Baseline” value was 100% (4×) and 93% and 81% and 88% and 80% and 92% (2×) and 113% and 87% and 97% and 89% (2×) and 79% and 108% in data set [2] (week 1, 1 mg oral daily); 99% and 86% (2×) and 95% and 79% and 108% and 75% and 92% (2×) and 150% and 96% and 88% and 89% and 77% and 98% and 83% and 117% in data set [2] (week 2, 1 mg oral daily); 99% and 88% and 81% and 57% and 84% (2×) and 78% and 104% and 85% and 97% and 70% and 69% and 80% and 60% and 107% and 206% in data set [2] (week 4, 1 mg oral daily); 96% and 55% and 109% and 47% and 67% and 73% and 62% and 79% and 43% and 35% and 34% and 41% and 86% and 97% in data set [2] (week 8, 1 mg oral daily); 81% and 27% and 105% and 51% and 36% and 49% and 45% and 37% and 73% and 52% and 4% and 34% and 28% and 70% and 87% in data set [2] (week 10 (end of 2-week follow-up)). In the data set with IP-10, the “IP-10 expression and secretion” value is “dose-dependently down regulated”.
